Source: patent US8883826B2, “Alkynyl derivatives as modulators of metabotropic glutamate receptors” (Addex Pharma SA, priority 2004, dated 2014)

Key:
mGluR5 = biological target: T1, mGluR5 (Rattus norvegicus, UniProt P31424); experiment: mGluR5 binding assay ([3H]-MPEP radioligand competition); conditions: competition with 3 nM [3H]-MPEP, rat brain cortical membranes, 1 h at 4 °C; mean of at least three independent experiments in duplicate
T1 construct: tissue Charles River Laboratories; host or cells: rat brain cortex membranes (Sprague-Dawley)
Procedure, shortened: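 Rat cortical membranes (50 μg) were incubated 1 h at 4 °C with 3 nM [3H]-MPEP and compound (0.003 nM-30 μM, 8 points) in HEPES buffer pH 7.4 with Mg2+, Ca2+ and NaCl. 30 μM MPEP defined non-specific binding, and bound label was counted after filtration. IC50 came from non-linear regression, as the mean of ≥3 experiments run in duplicate.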

T1 sequence (P31424 21-1203): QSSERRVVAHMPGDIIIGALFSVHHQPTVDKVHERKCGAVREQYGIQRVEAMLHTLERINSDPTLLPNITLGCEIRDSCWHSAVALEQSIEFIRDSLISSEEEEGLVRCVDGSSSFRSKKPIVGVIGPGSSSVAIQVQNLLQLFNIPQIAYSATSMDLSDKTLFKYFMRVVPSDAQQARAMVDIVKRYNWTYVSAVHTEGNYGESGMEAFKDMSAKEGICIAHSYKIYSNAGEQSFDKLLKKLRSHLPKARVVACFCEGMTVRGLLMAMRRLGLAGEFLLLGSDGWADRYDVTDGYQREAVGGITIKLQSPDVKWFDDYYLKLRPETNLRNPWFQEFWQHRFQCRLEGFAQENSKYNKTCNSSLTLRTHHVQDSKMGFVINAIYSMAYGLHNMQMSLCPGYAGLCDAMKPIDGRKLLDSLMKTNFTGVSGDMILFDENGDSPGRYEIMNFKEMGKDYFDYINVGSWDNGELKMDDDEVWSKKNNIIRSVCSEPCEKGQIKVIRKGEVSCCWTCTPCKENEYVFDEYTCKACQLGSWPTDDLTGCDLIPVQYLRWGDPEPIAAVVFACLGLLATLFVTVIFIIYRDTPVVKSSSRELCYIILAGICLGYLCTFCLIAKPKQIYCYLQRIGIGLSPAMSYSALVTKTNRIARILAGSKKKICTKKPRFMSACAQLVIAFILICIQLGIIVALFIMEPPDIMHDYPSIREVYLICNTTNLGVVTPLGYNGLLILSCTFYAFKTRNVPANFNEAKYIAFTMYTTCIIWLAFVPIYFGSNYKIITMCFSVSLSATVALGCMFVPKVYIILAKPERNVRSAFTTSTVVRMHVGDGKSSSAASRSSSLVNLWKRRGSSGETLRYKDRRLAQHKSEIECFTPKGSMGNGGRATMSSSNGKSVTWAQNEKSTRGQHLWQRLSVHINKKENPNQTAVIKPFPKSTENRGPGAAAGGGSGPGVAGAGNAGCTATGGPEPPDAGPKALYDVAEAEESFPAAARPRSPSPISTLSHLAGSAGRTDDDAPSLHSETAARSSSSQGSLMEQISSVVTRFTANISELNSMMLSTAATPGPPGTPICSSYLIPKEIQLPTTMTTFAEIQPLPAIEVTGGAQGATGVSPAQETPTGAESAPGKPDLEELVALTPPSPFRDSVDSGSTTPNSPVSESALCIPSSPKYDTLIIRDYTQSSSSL

| SMILES | IC50 (mGluR5) | melting point |
| --- | --- | --- |
| Cc1nc(C#CCCc2ccccc2)c[nH]1 [Example 11, 2-Methyl-4-(4-phenylbut-1-ynyl)-1H-imidazole] | – | 124 to 126 °C |
| C(#Cc1ccccn1)CCn1nnc(-c2ccccc2)n1 [Example 32, 2-(4-(5-Phenyl-2H-tetrazol-2-yl)but-1-ynyl)pyridine] | < 10 µM | 71 to 73 °C |
| C(#Cc1ccccn1)CCc1nc(-c2ccc3ccccc3c2)no1 [Example 51, 2-(4-(3-(Naphthalen-2-yl)-1,2,4-oxadiazol-5-yl)but-1-ynyl)pyridine] | < 10 µM | 76 to 78 °C |
| Clc1ccc(-c2noc(CCC#Cc3ccccn3)n2)c(Cl)c1 [Example 57, 2-(4-(3-(2,4-Dichlorophenyl)-1,2,4-oxadiazol-5-yl)but-1-ynyl)pyridine] | < 10 µM | 77 to 78 °C |
| Cc1csc(C#CCCn2nc3ccccc3n2)n1 [Example 229, 2-(4-(4-Methylthiazol-2-yl)but-3-ynyl)-2H-benzo[d][1,2,3]triazole] | – | 78 to 80 °C |
| FCc1cccc(C#CCCn2ncc(-c3ccc(F)cc3)n2)n1 [Example 250, 2-(Fluoromethyl)-6-(4-(4-(4-fluorophenyl)-2H-1,2,3-triazol-2-yl)but-1-ynyl)pyridine] | – | 84 to 86 °C |
| FCc1cccc(C#CCCn2cc(-c3ccc(F)cc3)nn2)n1 [Example 254, 2-(Fluoromethyl)-6-(4-(4-(4-fluorophenyl)-1H-1,2,3-triazol-1-yl)but-1-ynyl)pyridine] | – | 100 to 103 °C |

Next, values leading:

| IC50 (mGluR5) | melting point | SMILES |
| --- | --- | --- |
| < 0.05 µM | 143.5 to 145 °C | C(#Cc1ccccn1)CCc1nc2ccccc2o1.Cl [Example 8, 2-(4-(Pyridin-2-yl)but-3-ynyl)benzo[d]oxazole Hydrochloride] |
| < 10 µM | 68 to 71 °C | CN(C(=O)CCC#Cc1ccccn1)c1ccccc1 [Example 12, N-Methyl-N-phenyl-5-(pyridin-2-yl)pent-4-ynamide] |
| < 1 µM | 189.9 to 190.2 °C | O=C(CCC#Cc1ccccn1)Nc1ccc(F)cc1 [Example 34, N-(4-Fluorophenyl)-5-(pyridine-2-yl)pent-4-ynamide] |
| < 0.05 µM | 98.5 to 99.4 °C | C(#Cc1ccccn1)CCc1nc2ccccc2s1 [Example 35, 2-(4-(Pyridin-2-yl)but-3-ynyl)benzo[d]thiazole] |
| < 10 µM | 101.5 to 102.2 °C | Clc1ccc2nc(CCC#Cc3ccccn3)oc2c1 [Example 36, 6-Chloro-(2-(4-pyridin-2-yl)but-3-ynyl)benzo[d]oxazole] |
| < 10 µM | 100.1 to 101 °C | Fc1ccc2oc(CCC#Cc3ccccn3)nc2c1 [Example 37, 5-Fluoro-(2-(4-pyridin-2-yl)but-3-ynyl)benzo[d]oxazole] |
| < 10 µM | 68 to 69 °C | Fc1ccc(C#CCCC#Cc2ccccn2)cc1 [Example 38, 2-(6-(4-Fluorophenyl)hexa-1,5-diynyl)pyridine] |
| – | 95.5 to 96 °C | O=c1n(CCC#Cc2ccccn2)nc2ccccn12 [Example 39, 2-(4-(Pyridin-2-yl)but-3-ynyl)-[1,2,4]triazolo[4,3-a]pyridin-3(2H)-one] |
| < 10 µM | 75 to 77 °C | Clc1ccc(-c2noc(CCC#Cc3ccccn3)n2)cc1 [Example 47, 2-(4-(3-(4-Chlorophenyl)-1,2,4-oxadiazol-5-yl)but-1-ynyl)pyridine] |
| – | 122 to 125 °C | Cc1cc(F)ccc1NC(=O)CCC#Cc1cccc(CF)n1 [Example 252, 5-(6-(Fluoromethyl)pyridin-2-yl)-N-(4-fluoro-2-methyl-phenyl)pent-4-ynamide] |
| – | 130 to 131 °C | Cc1c(-c2ccc(F)cc2)nnn1CCC#Cc1ccccn1 [Example 258, 2-(4-(4-(4-Fluorophenyl)-5-methyl-1H-1,2,3-triazol-1-yl)but-1-ynyl)pyridine] |
